In brackets after ≈: the same amount, converted by molar mass.
Assays:
Canidae = conditions: chronic; duration: 1 years; oral; Dog Other; clinical signs
Lepomis macrochirus = conditions: acute; duration: 96 hours; mortality
Aphidius rhopalosiphi = conditions: acute; duration: 2 days; mortality
Daphnia magna = conditions: chronic/long-term; duration: 21 days; reproduction
Oryctolagus sp. = conditions: acute; oral; mortality
Bird = conditions: acute; oral; unspecified; mortality
Apis mellifera = conditions: acute; duration: 48 hours; dermal; mortality

Compound | NOAEL (Rattus norvegicus; reproduction developmental) [mg/kg-day] | NOAEL (Canidae) [mg/kg-day] | LC50 (Lepomis macrochirus) [µg/mL] | LEL (Aphidius rhopalosiphi) [g/ha] | NOEL (Anas platyrhynchos; acute, oral, unspecified, mortality) [mg/kg] | NOEL (Anas platyrhynchos; reproductive) [mg/kg-day] | LC50 (Anas platyrhynchos; short-term, oral, feed, mortality) [mg/kg-day] | NOEC (Daphnia magna) [mg/L] | LD50 (Oryctolagus sp.) [mg/kg-day] | LD50 (Bird) [mg/kg] | NOAEL (Rattus norvegicus; chronic, duration: 104 weeks, neurology) [mg/kg-day] | NOAEL (Rattus norvegicus; subchronic, duration: 90 days, oral, clinical chemistry) [mg/kg-day] | LD50 (Apis mellifera) [µg/piece]
CNC(=O)Oc1cccc2c1OC(C)(C)C2 [Carbofuran] | 0.1 | 0.1 | – | – | – | – | – | – | – | – | – | – | –
CCCCN(CCCC)SN(C)C(=O)Oc1cccc2c1OC(C)(C)C2 [Carbosulfan] | – | – | 0.015 (≈ 0.0394 µM) | 120 | 2.51 | 2.5 | 3.99 | 0.0032 | 42.7 | 10 | 1 | 2 | 0.18
